Measured values published in patent US20220193068A1, “A GRK2 PROTEIN INHIBITOR COMPOUND AND A PHARMACEUTICAL COMPOSITION COMPRISING THE SAME” (CONSEJO NACIONAL DE INVESTIGACIONES CIENTÍFICAS Y TÉCNICAS …, priority 2019, published 2022).
pEC50: −log10 of the molar value.

How the values were obtained:
[1] = molecular target: T1, RGS domain of GRK2 (GRK2-K220R variant) (Bos taurus, UniProt P21146, K220R); assay: cAMP response of rH2 to amthamine in HEK293 clones overexpressing rH2 and GRK2-K220R; type: cell-based; conditions: 40 min pretreatment, C2-C5 at 10 μM or 100 μM, L96B at 100 nM or 1 μM, 10 μM amthamine, *p<0.05
T1 construct: expressed in transfected cells
T1 sequence (P21146 1-689 K220R): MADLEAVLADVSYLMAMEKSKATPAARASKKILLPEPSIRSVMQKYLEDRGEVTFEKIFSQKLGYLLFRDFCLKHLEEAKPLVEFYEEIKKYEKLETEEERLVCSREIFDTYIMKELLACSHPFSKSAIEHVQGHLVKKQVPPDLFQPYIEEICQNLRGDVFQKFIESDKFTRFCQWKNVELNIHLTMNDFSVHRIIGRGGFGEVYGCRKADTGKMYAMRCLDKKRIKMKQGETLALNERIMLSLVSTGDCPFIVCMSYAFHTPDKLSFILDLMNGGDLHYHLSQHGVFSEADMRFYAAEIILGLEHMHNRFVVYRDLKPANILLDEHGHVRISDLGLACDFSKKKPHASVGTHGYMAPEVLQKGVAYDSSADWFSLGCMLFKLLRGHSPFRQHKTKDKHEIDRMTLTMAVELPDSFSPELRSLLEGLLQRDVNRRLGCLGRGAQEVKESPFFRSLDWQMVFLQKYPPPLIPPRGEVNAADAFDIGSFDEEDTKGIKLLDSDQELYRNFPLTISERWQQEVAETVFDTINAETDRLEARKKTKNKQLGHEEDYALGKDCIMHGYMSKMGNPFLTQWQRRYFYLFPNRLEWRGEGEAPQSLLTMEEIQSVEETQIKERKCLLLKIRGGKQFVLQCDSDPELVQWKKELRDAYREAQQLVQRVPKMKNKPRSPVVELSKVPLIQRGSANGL
Excerpt: In order to assess the effect of inhibitors of the RGS domain of GRK2, a cell model derived from HEK293 transfected cells was obtained. Such cells overexpress the histamine H2 receptor (rH2), a G-protein coupled receptor (GPCR) of the Gs type that, when activated, promotes cAMP synthesis and which is inactivated by regulatory domain-mediated desensitization of G-protein stimulation (RGS) of GRK2. The clone obtained not only overexpresses rH2 but also overexpresses a negative dominant mutant of GRK2, the GRK2-K220R variant, which cannot phosphorylate GPCRs but can inactivate them through its RGS domain. In this system, the desensitizing effect of the RGS domain of GRK2 on the cAMP response of rH2 is evident.
Clones derived from HEK293 cells were obtained by stable and sequential transfection with pcDNA3.1Zeo(+)-HARH2 and pcDNA3-GRK2K22OR plasmids using K2 Transfection System (BIONTEX) reactive, following manufacturer's instructions and using, for a 35 mm diameter plate, a mixture A of 2.7 μg of total DNA and 150 μl of DMEM base and a mixture B of 6 μl of K2 transfection reactive and 150 μl of base DMEM. The following day, cells were plated in 96-well plates with 0.3 ml of complete DMEM per well. For clone selection, cells were incubated in selection agent-supplemented medium (50 μg/ml Zeocine or 1.2 mg/ml geneticin), following a limit dilution protocol. According to this protocol, cells were counted and plated performing serial dilutions, so as to obtain wells with con 1000, 100, 10 and 1 cell. The medium was renewed every other day by replacing 100 μl in each well with 100 μl of fresh medium of the same composition. After three weeks, several antibiotic-resistant clones were selected and afterwards plasmid expression was analyzed by Western blot.
Adhered clones were maintained in a humidified-atmosphere oven, with 5% CO2 at 37° C., in 10% FBS-supplemented DMEM medium, 50 μg/ml gentamicin, 0.8 mg/ml geneticin and 50 μg/ml zeocin. Cells were passed by adding 0.05% trypsin solution and 0.3 mM EDTA.
In order to assess the effect of GRK2 inhibitor compounds, clones were plated in 48-well plates at 50% confluence. […]
Next, cells were incubated for 3 min with 1 mM IBMX, a phosphodiesterase inhibitor that prevents degradation of the cAMP produced and afterwards the rH2-Gαs-adenylate-cyclase-cAMP signaling route was stimulated for 9 minutes with the rH2-specific agonist, amthamine, at a 10 μM concentration. […] This was evaporated and cAMP levels were determined.
cAMP in samples was quantified by adapting the linking protein-binding technique according to Davio et al, 1995.

[2] = system: GRK2K220R/R106A (mutated RGS domain); assay: Selectivity control: cAMP response of rH2 in HEK293 clones overexpressing rH2 and GRK2K220R/R106A; type: cell-based; conditions: 10 μM amthamine, no significant differences
Procedure: In order to assess specificity of the effect of compounds over RGS domain of GRK2, assays were carried out in a second system that overexpresses rH2 and GRK2K220R/R106A, a GRK2 double mutant negative dominant construct that lacks both kinase activity and desensitization action through RGS domain. […] The R106A mutation that inactivates the RGS domain is redundant to the effect of an inhibitory potential, thus constituting the selectivity control of the model and allowing to determine if the enhancement in the receiver response occurred as a result of an inhibition of the RGS domain, or if it was the result of a non-specific action of the compound on an unwanted target. Those compounds that also raise cAMP levels in this control system are considered to be of non-specific action.
Since the latter mutation is redundant to the effect of a potential inhibitor of RGS domain of GRK2, this system allows us to discern whether the enhancement in the rH2 response occurred as a result of an RGS domain inhibition, or whether it resulted from a non-specific action of the compound on an unwanted target.

HEPG2 cell line [3] = system: HEPG2 cell line
Procedure: (§1) Since hepatotoxicity is one of the main forms of toxicity in which drugs affect the body, the cytotoxicity of inhibitors was assessed using the human hepatocyte HEPG2 cell line.
(§2) Cells were plated in a 96-well plate at a 22,000 cell/well density and incubated for 48 hours with the compounds in a concentration range of between 0.33 μM and 200 μM. Afterwards, their viability was analyzed through trypan blue exclusion method and counted in Neubauer camera.

HEPG2 cell line [4] = assay: Viability of human hepatocyte HEPG2 cells, trypan blue exclusion; conditions: 48 hours, 0.33 μM to 200 μM, versus DMSO control, C2 effect as from 10 μM
Procedure: as §1, §2

| Compound | effect on H2 receptor capacity of response (cAMP) [1] | effect over rH2 capacity of response (cAMP) with GRK2 mutated in the RGS domain [2] | pEC50 (HEPG2 cell line [3]) | melting point [°C] | cytotoxicity / cell viability (HEPG2 cell line [4]) |
| --- | --- | --- | --- | --- | --- |
| CC(=O)N1CCc2cc(NC(=O)Nc3cccc4cccnc34)ccc21 [C2, 3-(1-acetyl-2,3-dihydro-H-indol-5-yl)-1-(quinoline-8-yl)urea] | enhancing effect | lack of effect | 4.99 | – | – |
| Cc1ccc2cc(C(=O)Nc3cccc(-c4nnco4)c3)c(C)nc2c1 [C3, 2,7-dimethyl-N-[3-(1,3,4-oxadiazol-2-yl)phenyl] quinoline-3-carboxamide] | enhancing effect | lack of effect | – | – | – |
| O=C(CCc1ccc2ccccc2c1)N1CCCC(n2cccn2)C1 (centres unmarked) [C4, 3-(naphtalen-2-yl)-1-[3-(1H-pyrazol-1-yl)piperidin-1-yl]propan-1-one] | enhancing effect | lack of effect | – | – | – |
| O=C(Cc1n[nH]c(=O)c2ccccc12)Nc1cccc2ncccc12 [C5, 2-(4-oxo-3,4-dihydrophthalazin-1-yl)-N-(quinoline-5-yl)acetamide] | enhancing effect | lack of effect | – | – | – |
| O=C(Nc1ccc(-c2nnco2)cc1)c1cnc2ccccc2c1 [L94C, N-[4-(1,3,4-oxadiazol-2-yl)phenyl]quinoline-3-carboxamide] | – | – | – | 202 | – |
| COC(=O)c1ccc(NC(=O)c2ccc3ccccc3c2)cc1 [L96B, methyl 4-(naphthalene-2-amido)benzoate] | – | – | – | – | did not affect cell viability |
